According to patent publication US6342508B1, “N-hydroxy-2-(Alkyl,Aryl or Heteroaryl sulfanyl, sulfinyl or sulfonyl) 3-substituted alkyl, aryl or heteroarylamides as matrix metalloproteinase inhibitors” (American Cyanamid Company, priority 1997, dated 2002):
Read-outs that look alike come from different tables or passages of the source. Blank lines part the entries; values can stand above or below the molecule they belong to.

Assays:
TACE = target: T1, TACE (Homo sapiens, UniProt P78536); test: Procedure for Measuring TACE Inhibition (fluorescent peptidyl substrate); assay type: biochemical
T1 construct: purchased Immunex
Procedure: Using 96-well black microtiter plates, each well recieves a solution composed of 10 μL TACE (Immunex, final concentration 1 μg/mL), 70 μL Tris buffer, pH 7.4 containing 10% glycerol (final concentration 10 mM), and 10 μL of test compound solution in DMSO (final concentration, DMSO concentration <1%) and incubated for 10 minutes at room temperature. The reaction is initiated by addition of a fluorescent peptidyl substrate (final concentration 100 μM) to each well and then shaking on a shaker for 5 sec. The reaction is read (excitation 340 nm, emission 420 nm) for 10 min. and the increase in fluorescence over time is plotted as a linear line. The slope of the line is calculated and represents the reaction rate. […] The mean (x±sem) of the control rate is calculated and compared for statistical significance (p<0.05) with drug-treated rates using Dunnett's multiple comparison test.

MMP 13 = MMP 13 (Homo sapiens, UniProt P45452); test: MMP 13 inhibition (HTS); assay type: biochemical

T1 sequence (P78536 215-824): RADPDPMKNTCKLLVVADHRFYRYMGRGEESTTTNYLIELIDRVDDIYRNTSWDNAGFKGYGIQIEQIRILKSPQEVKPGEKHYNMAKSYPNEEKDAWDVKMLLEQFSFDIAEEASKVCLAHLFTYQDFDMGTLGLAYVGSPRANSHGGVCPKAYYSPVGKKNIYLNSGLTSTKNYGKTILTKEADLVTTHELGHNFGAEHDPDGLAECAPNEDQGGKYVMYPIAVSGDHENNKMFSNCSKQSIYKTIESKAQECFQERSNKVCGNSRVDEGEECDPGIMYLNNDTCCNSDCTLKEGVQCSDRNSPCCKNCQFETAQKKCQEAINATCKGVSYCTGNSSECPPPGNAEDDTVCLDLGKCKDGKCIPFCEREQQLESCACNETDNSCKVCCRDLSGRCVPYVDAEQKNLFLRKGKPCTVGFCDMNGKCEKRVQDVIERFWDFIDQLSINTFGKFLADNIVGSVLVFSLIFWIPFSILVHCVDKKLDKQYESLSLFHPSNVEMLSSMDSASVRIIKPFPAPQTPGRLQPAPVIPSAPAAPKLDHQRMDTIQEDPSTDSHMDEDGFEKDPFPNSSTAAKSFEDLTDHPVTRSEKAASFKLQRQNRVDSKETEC

Molecule: 3-(1-Hydroxycarbamoyl-heptylsulfanyl)-benzoic acid hydroxyamide [Example 184]
TACE % inhibition at 1 mM (TACE): 24.8% | MMP 13 % inhibition at 36 nM (HTS) (MMP 13): 16%

IC50 (TACE; read-out: TACE IC 50): 69.4 nM | melting point: 125 °C
Molecule: CCCCCCC(Sc1nccn1C)C(=O)NO (stereo not shown) [Example 39, 2-(1-methyl-1H-imidazol-2-ylsulfanyl)-octanoic acid hydroxyamide]

MMP 13 % inhibition at 0.2 μM (HTS) (MMP 13): 71%
Molecule: COC(=O)CCC(Sc1ccc(SC)cc1)C(=O)NO (stereo not shown) [Example 131, 4-Hydroxycarbamoyl-4-(4-methanesulfanyl-phenylsulfanyl)-butyric acid methyl ester]

TACE % inhibition at 1 mM (TACE): 33.7% | MMP 13 % inhibition at 0.2 μM (HTS) (MMP 13): 50%
Molecule: CC(C)CCSC(C)C(=O)NO (stereo not shown) [Example 112, N-Hydroxy-2-(3-methyl-butane-1-sulfanyl)-propionamide]

TACE % inhibition at 1 mM (TACE): −9.31% | MMP 13 % inhibition at 0.2 μM (HTS) (MMP 13): 25%
Molecule: O=C(CCC(Sc1ccc(Br)cc1)C(=O)NO)NO (stereo not shown) [Example 134, 4-Hydroxycarbamoyl-4-(4-bromo-benzenesulfanyl)-butyric acid hydroxyamide]

TACE % inhibition at 1 mM (TACE): 45.9% | MMP 13 % inhibition at 36 nM (HTS) (MMP 13): 54%
Molecule: 3-Bromo-2-chloro-thiophene-2-sulfonic acid 4-(1-hydroxycarbamoyl-heptylsulfonyl)-hydroxyamide [Example 239]

IC50 (TACE; read-out: TACE IC 50): 36.5 nM | melting point: 108 to 110 °C
Molecule: CC(C)=CCC(CC=C(C)C)(C(=O)NO)S(=O)(=O)c1ccc(C)cc1 [Example 42, 5-Methyl-2-(3-methyl-but-2-enyl)-2-(toluene-4-sulfonyl)-hex-4-enoic acid hydroxyamide]

MMP 13 % inhibition at 0.2 μM (HTS) (MMP 13): 19%
Molecule: N=C(N)NCCCC(Sc1ccccc1Br)C(=O)NO (stereo not shown) [Example 157, 2-(2-Bromosulfanyl)-5-guanidino-pentanoic acid hydroxyamide]

MMP 13 % inhibition at 0.2 μM (HTS) (MMP 13): 13%
Molecule: CCCCCCC(Sc1cccc(OC)c1)C(=O)NO (stereo not shown) [Example 162, 2-(3-Methoxybenzenesulfanyl)-octanoic acid hydroxyamide]

MMP 13 % inhibition at 36 nM (HTS) (MMP 13): 6%
Molecule: CCCCCCC(C(=O)NO)S(=O)(=O)c1[nH]c2ccccc2[n+]1[O-] (stereo not shown) [Example 181, 2-(3-Oxy-1H-benzimidazole-2-sulfonyl)-octanoic acid hydroxyamide]

MMP 13 % inhibition at 36 nM (HTS) (MMP 13): 5%
Molecule: CCCCCCC(C(=O)NO)[S+]([O-])c1nc2ccccc2[nH]1 (stereo not shown) [Example 177, 2-(2-Benzimidazol-2-ylsulfinyl)-octanoic acid hydroxyamide]

MMP 13 % inhibition at 0.2 μM (HTS) (MMP 13): 21%
Molecule: CCCCCCC(Sc1nc2ccccc2[nH]1)C(=O)NO (stereo not shown) [Example 168, 2-(2-Benzimidazol-2-ylsulfanyl)-octanoic acid hydroxyamide]

Molecule: O=C(NO)C(Cc1cnc[nH]1)Sc1ccccc1Br (stereo not shown) [Example 152, 2-(2-bromo-benzenesulfanyl)-N-hydroxy-3-(3H-imidazol-4-yl)-propionamide]
MMP 13 % inhibition at 0.2 μM (HTS) (MMP 13): 9%

MMP 13 % inhibition at 0.2 μM (HTS) (MMP 13): 14%
Molecule: CCCCCCC(Sc1cc(Cl)ccc1Cl)C(=O)NO (stereo not shown) [Example 160, 2-(2,5-dichlorobenzenesulfanyl)-octanoic Acid Hydroxyamide]

MMP 13 % inhibition at 36 nM (HTS) (MMP 13): 28%
Molecule: CCCCCCC(Sc1nc2ccccc2o1)C(=O)NO (stereo not shown) [Example 169, 2-(2-Benzooxazol-2-ylsulfanyl)-octanoic acid hydroxyamide]

MMP 13 % inhibition at 0.2 μM (HTS) (MMP 13): 69%
Molecule: CCCCCCCCC(C(=O)NO)S(=O)(=O)c1cccc(OC)c1 (stereo not shown) [Example 142, 2-(3-Methoxy-benzenesulfonyl)decanoic acid hydroxamide]

MMP 13 % inhibition at 0.2 μM (HTS) (MMP 13): 68%
Molecule: CSc1ccc(SC(COCc2ccccc2)C(=O)NO)cc1 (stereo not shown) [Example 146, 3-benzyloxy-N-hydroxy-2-(4-methanesulfanyl-benzenesulfanyl)-propionamide]

IC50 (TACE; read-out: TACE IC 50): 71.9 nM | melting point: 180 °C
Molecule: COc1ccc(S(=O)(=O)C2(C(=O)NO)CCN(Cc3ccc(Br)cc3)CC2)cc1 [Example 90, 1-(4Bromo-benzyl)-4-(4-methoxy-benzenesulfonyl)-piperidine-4-carboxylic acid hydroxyamide]

TACE % inhibition at 1 mM (TACE): 48.3% | MMP 13 % inhibition at 36 nM (HTS) (MMP 13): 59%
Molecule: CCCCCCC(C(=O)NO)[S+]([O-])c1ccc(NS(=O)(=O)c2c(C)nn(C)c2Cl)cc1 (stereo not shown) [Example 235, 5-Chloro-1,3-dimethyl-1H-pyrazole-4-sulfonic acid 4-(1-hydroxycarbamoyl-heptylsulfinyl)-hydroxyamide]

TACE % inhibition at 1 mM (TACE): 40.4% | MMP 13 % inhibition at 0.2 μM (HTS) (MMP 13): 10%
Molecule: COc1ccc(SC(C)C(=O)NO)cc1 (stereo not shown) [Example 111, N-Hydroxy-2-(4-methoxy-benzenesulfanyl)-propionamide]

MMP 13 % inhibition at 0.2 μM (HTS) (MMP 13): 49%
Molecule: N=C(N)NCCCC(C(=O)NO)S(=O)(=O)c1ccccc1Br (stereo not shown) [Example 159, 2-(2-Bromosulfonyl)-5-guanidino-pentanoic acid hydroxyamide]

MMP 13 % inhibition at 0.2 μM (HTS) (MMP 13): 29%
Molecule: CCCCCCCCC(Sc1cccc(OC)c1)C(=O)NO (stereo not shown) [Example 140, 2-(3-methoxy-benzenesulfanyl)decanoic acid hydroxamide]

MMP 13 % inhibition at 36 nM (HTS) (MMP 13): −6%
Molecule: CCCCCCC(C(=O)NO)S(=O)(=O)CCc1cccc[n+]1[O-] (stereo not shown) [Example 183, 2-[2-(1-Oxy-pyridin-2-yl)-ethanesulfonyl]-octanoic acid hydroxyamide]

IC50 (TACE; solid phase compounds table): 930 nM
Molecule: CCCCCCC(C(=O)NO)S(=O)(=O)c1ccc(OS(=O)(=O)c2ccccc2[N+](=O)[O-])cc1 (stereo not shown) [Example 238, 2-Nitro-benzenesulfonic acid 4-(1-hydroxycarbamoyl-heptylsulfonyl)-hydroxyamide]

MMP 13 % inhibition at 0.2 μM (HTS) (MMP 13): 71%
Molecule: CCCCCCC(Sc1ccc(OC)c(OC)c1)C(=O)NO (stereo not shown) [Example 165, 2-(3,4-Dimethoxybenzenesulfanyl)-octanoic acid hydroxyamide]

MMP 13 % inhibition at 36 nM (HTS) (MMP 13): 32%
Molecule: CCCCCCC(Sc1nc2ccccc2s1)C(=O)NO (stereo not shown) [Example 170, 2-(2-Benzothiazol-2-ylsulfanyl)-octanoic acid hydroxyamide]

TACE % inhibition at 1 mM (TACE): 50.9%
Molecule: CCCCCCC(Sc1ccc(OCCN2CCNCC2)cc1)C(=O)NO (stereo not shown) [Example 201, 2-[4-(2-Piperazine-1-yl-ethoxy)-benzenesulfanyl]-octanoic acid hydroxyamide]

MMP 13 % inhibition at 0.2 μM (HTS) (MMP 13): 32%
Molecule: CCCCCCCCC(C(=O)NO)[S+]([O-])c1cccc(OC)c1 (stereo not shown) [Example 141, 2-(3-Methoxy-benzenesulfinyl)decanoic acid hydroxamide]

IC50 (TACE; read-out: TACE IC 50): 18.1 nM | melting point: 75 °C
Molecule: COc1ccc(S(=O)(=O)C2(C(=O)NO)CCN(C(C)C)CC2)cc1 [Example 96, 1-Isopropyl-4-(4-methoxy-benzenesulfonyl)-piperidine-4-carboxylic acid hydroxyamide]

TACE % inhibition at 1 mM (TACE): 19.8% | MMP 13 % inhibition at 36 nM (HTS) (MMP 13): 33%
Molecule: CCCCCCC(Sc1ccc(NS(=O)(=O)c2cc(Cl)sc2Cl)cc1)C(=O)NO (stereo not shown) [Example 233]

TACE % inhibition at 1 mM (TACE): 7.8% | MMP 13 % inhibition at 0.2 μM (HTS) (MMP 13): 0%
Molecule: CCC(SCC(=O)OC)C(=O)NO (stereo not shown) [Example 119, (1-Hydroxycarbamoyl-propane-1-sulfanyl)-acetic acid methyl ester]

IC50 (TACE; read-out: TACE IC 50): 34.6 nM
Molecule: COc1ccc(S(=O)(=O)C(C/C=C(\C)CCC=C(C)C)(Cc2ccc(OCCN3CCOCC3)cc2)C(=O)NO)cc1 (stereo not shown) [Example 26, (4E)-2-(4-Methoxy-benzenesulfonyl)-5,9 dimethyl-2-(4-(2-morpholin-4-yl-ethoxy)-benzyl]-deca-4,8-dienoic acid hydroxyamide]

MMP 13 % inhibition at 36 nM (HTS) (MMP 13): −10%
Molecule: CCCCCCC(Sc1ccc(OCc2ccccc2)cc1)C(=O)NO (stereo not shown) [Example 199, 2-(^4-Benzyloxy-phenylsulfanyl)-octanoic acid hydroxyamide]

MMP 13 % inhibition at 0.2 μM (HTS) (MMP 13): 45%
Molecule: CCCCCCCCC(C(=O)NO)S(=O)(=O)c1ccc(S(C)(=O)=O)cc1 (stereo not shown) [Example 145, 2-(4-methanesulfonyl-benzenesulfonyl)decanoic acid hydroxamide]

TACE % inhibition at 1 mM (TACE): 38.2% | MMP 13 % inhibition at 36 nM (HTS) (MMP 13): 55%
Molecule: CCCCCCC(C(=O)NO)[S+]([O-])c1ccc(NS(=O)(=O)c2ccc(-c3ccccn3)s2)cc1 (stereo not shown) [Example 237, 5-Pyridin-2-yl-thiophene-2-sulfonic acid 4(1-hydroxycarbamoyl-heptylsulfinyl)-hydroxy amide]

IC50 (TACE; read-out: TACE IC 50): 47.5 nM
Molecule: COc1ccc(S(=O)(=O)C(CC=C(C)C)(Cc2ccc(OCCN3CCOCC3)cc2)C(=O)NO)cc1 (stereo not shown) [Example 24, 2-(4-Methoxy-benzenesulfonyl)-5-methyl-2-[4-(2-morpholin-4-yl-ethoxy)-benzyl]-hex-4-enoic acid hydroxyamide]

IC50 (TACE; read-out: TACE IC 50): 22.9 nM | melting point: > 200 °C
Molecule: COc1ccc(S(=O)(=O)C2(C(=O)NO)CCN(C3CCCCCCC3)CC2)cc1 [Example 94, 1-Cyclooctyl-4-(4-methoxy-benzenesulfonyl)-piperidine-4-carboxylic acid hydroxyamide]

MMP 13 % inhibition at 0.2 μM (HTS) (MMP 13): 38%
Molecule: CCCCCCCCC(C(=O)NO)[S+]([O-])c1ccc([S+](C)[O-])cc1 (stereo not shown) [Example 144, 2-(4-methanesulfinyl-benzenesulfinyl)decanoic acid hydroxamide]

IC50 (TACE; read-out: TACE IC 50): 9.7 nM | melting point: 40 °C
Molecule: COc1ccc(S(=O)(=O)C2(C(=O)NO)CCN(C(C)(C)C)CC2)cc1 [Example 92, 1-Tert-butyl-4-(4-methoxy-benzenesulfonyl)-piperidine-4-carboxylic acid hydroxyamide]

MMP 13 % inhibition at 0.2 μM (HTS) (MMP 13): 33%
Molecule: N=C(N)NCCCC(C(=O)NO)[S+]([O-])c1ccccc1Br (stereo not shown) [Example 158, 2-(2-Bromosulfinyl)-5-guanidino-pentanoic acid hydroxyamide]
